Experimental data as given in ChEMBL document CHEMBL1157566, “Cytotoxic and anti-inflammatory cembranoids from the Dongsha Atoll soft coral Sarcophyton crassocaule” (2010).
≈ marks a conversion by molar mass, not a printed value.

What was measured:
Assay type in all cases: functional
MCF7 = assay: Cytotoxicity against human MCF7 cells by MTT assay; conditions: read-out: ED50 (the source's name)
WiDr = assay: Cytotoxicity against human WiDr cells by MTT assay; conditions: read-out: ED50 (the source's name)
HEp-2 = assay: Cytotoxicity against human Hep2 cells by MTT assay; conditions: read-out: ED50 (the source's name)
Daoy = assay: Cytotoxicity against human DaOY cells by MTT assay; conditions: read-out: ED50 (the source's name)
RAW264.7 [1] = assay: Antiinflammatory activity in mouse RAW264.7 cells assessed as inhibition of LPS-stimulated iNOS protein expression by measuring iNOS protein level at 10 uM by Western blot relative to untreated control
RAW264.7 [2] = assay: Antiinflammatory activity in mouse RAW264.7 cells assessed as inhibition of LPS-stimulated COX2 protein expression by measuring COX2 protein level at 10 uM by Western blot relative to untreated control; design: scale not given: the % may be the effect or the level left

For `C=C1C(=O)O[C@@H]2[C@@H]1C[C@H](O)[C@@]1(C)CC[C@@H](O1)C(=C)CC/C=C(\C)[C@@H]2OC(C)=O` [SARCOCRASSOCOLIDE A], the EC50 (MCF7) was 4.2 µg/mL (≈ 10.8 µM), the EC50 (WiDr) was 4.2 µg/mL (≈ 10.8 µM) and the EC50 (HEp-2) was 6.2 µg/mL (≈ 15.9 µM). The EC50 (Daoy) was 8.8 µg/mL (≈ 22.5 µM) and the “iNOS protein level relative to control” value (RAW264.7 [1]) was 13.7%.

In the case of `CO[C@@]12[C@H](COC(N)=O)C3=C(C(=O)C(C)=C(N)C3=O)N1C[C@@H]1N[C@@H]12` [MITOMYCIN], the EC50 (MCF7) is reported as 0.14 µg/mL (≈ 0.419 µM), the EC50 (WiDr) is reported as 0.15 µg/mL (≈ 0.449 µM) and the EC50 (HEp-2) is reported as 0.07 µg/mL (≈ 0.209 µM). The EC50 (Daoy) was 0.14 µg/mL (≈ 0.419 µM).

In the case of `C=C1CC/C=C(\C)[C@H](OC(C)=O)[C@@H]2OC(=O)C(=C)[C@H]2C[C@H](O)[C@@]2(C)CC[C@@H]1O2` [SARCOCRASSOCOLIDE B], the EC50 (MCF7) is reported as 3.2 µg/mL (≈ 8.2 µM), the EC50 (WiDr) is reported as 3.2 µg/mL (≈ 8.2 µM) and the EC50 (HEp-2) is reported as 4.5 µg/mL (≈ 11.5 µM). The EC50 (Daoy) was 5.6 µg/mL (≈ 14.3 µM) and the “iNOS protein level relative to control” value (RAW264.7 [1]) was 13.3%.

In the case of `C=C1CC/C=C(\C)C[C@@H]2OC(=O)C(=C)[C@H]2C[C@H](O)[C@@]2(C)CC[C@@H]1O2` [SARCOCRASSOCOLIDE D], the EC50 (MCF7) is reported as 4.1 µg/mL (≈ 12.3 µM), the EC50 (WiDr) is reported as 1.8 µg/mL (≈ 5.41 µM) and the EC50 (HEp-2) is reported as 4 µg/mL (≈ 12 µM). For the same compound, the EC50 (Daoy) was 5.4 µg/mL (≈ 16.2 µM) and the “iNOS protein level relative to control” value (RAW264.7 [1]) was 7%.

`C=C1C(=O)O[C@H]2[C@H]1C[C@@H]1O[C@@]1(C)CC/C=C(\C)CC/C=C(\C)[C@@H]2OC(C)=O` was tested, and the “iNOS protein level relative to control” value (RAW264.7 [1]) was 6.2%.

For `C=C1C(=O)O[C@@H]2C/C(C)=C/CC/C(C)=C/CC[C@]3(C)O[C@H]3C[C@@H]12` [SARCOCRASSOLIDE], the “iNOS protein level relative to control” value (RAW264.7 [1]) was 1.1% and the Activity (RAW264.7 [2]) was 3.9%.

For `C=C1C(=O)O[C@H]2C/C(C)=C/CCC(=C)[C@H]3CC[C@@](C)(O3)[C@@H](O)C[C@H]12` [SARCOCRASSOCOLIDE C], the EC50 (MCF7) was 2 µg/mL (≈ 6.02 µM), the EC50 (WiDr) was 1.2 µg/mL (≈ 3.61 µM) and the EC50 (HEp-2) was 2.6 µg/mL (≈ 7.82 µM). The EC50 (Daoy) was 3.2 µg/mL (≈ 9.63 µM) and the “iNOS protein level relative to control” value (RAW264.7 [1]) was 4.6%.
